Assay results reported in US20060069132A1, “Azolecarboxamide herbicides” (priority 2004, published 2006).

Key:
Assay in all cases: Test E pre-/postemergence herbicide test
[1] = test system: large crabgrass; assay type: in vivo, Digitaria sanguinalis
Text: (§1) Seeds of plant species selected from bipinnate beggarticks (Bidens bipinnata L.), hairy beggarticks (Bidens radiata Thuill.), bermudagrass (Cynodon dactylon (L.) Pers.), Surinam grass (Urochloa decumbens (Staph) R. D. Webster, previously named Brachiaria decumbens Stapf), large crabgrass (Digitaria sanguinalis (L.) Scop.), green foxtail (Setaria viridis (L.) P. Beauv.), goosegrass (Eleusine indica (L.) Gaertn.), johnsongrass (Sorghum halepense (L.) Pers.), kochia (Kochia scoparia (L.) Schrad.), pitted morningglory (Ipomoea lacunosa L.), purple nutsedge (Cyperus rotundus L.), common ragweed (Ambrosia elatior L.), mustard (Brassica nigra (L.) W. D. J. Koch), guineagrass (Panicum maximum Jacq.), dallisgrass (Paspalum dilatatum Poir.), barnyardgrass (Echinochloa crus-galli (L). P. Beauv.), southern sandbur (Cenchrus echinatus L.), common sowthistle (Sonchus oleraceous L.), prickly sida (Sida spinosa L.), Italian ryegrass (Lolium multiflorum Lam.), common purslane (Portulaca oleracea L.), broadleaf signalgrass (Brachiaria platyphylla (Griseb.) Nash), common groundsel (Senecio vulgaris L.), common chickweed (Stellaria media (L.) Vill/Cyr.), tropical spiderwort (Commelina benghalensis L.), annual bluegrass (Poa annua L.), downy bromegrass (Bromus tectorum L.), itchgrass (Rottboellia cochinchinensis (L.) L.f.), quackgrass (Elytrigia repens (L.) Nevski), Canada horseweed (Erigeron Canadensis L.), field bindweed (Convolvulus arvensis L.), spotted spurge (Euphorbia maculata L.), common mallow (Malva sylvestris (=s silvestris) L.), and Russian thistle (Salsola kali L. ssp. Ruthenica (Iljin) Soo) were planted and treated preemergence with test chemicals formulated in a non-phytotoxic solvent mixture which included a surfactant.
(§2) At the same time, plants selected from these weed species were treated with postemergence applications of some of the test chemicals formulated in the same manner. Plants ranged in height from 2 to 18 cm (1- to 4-leaf stage) for postemergence treatments. Treated plants and controls were maintained in a greenhouse for 12 to 14 days, after which time all species were compared to controls and visually evaluated. Plant response ratings, summarized in Table E, are based on a scale of 0 to 100 where 0 is no effect and 100 is complete control. A dash (-) response means no test result.

[2] = test system: johnsongrass; assay type: in vivo, Sorghum halepense
Text: as §1, §2

[3] = test system: barnyardgrass; assay type: in vivo, Echinochloa crus-galli
Text: as §1, §2

[4] = test system: quackgrass; assay type: in vivo, Elytrigia repens
Text: as §1, §2

[5] = test system: Russian thistle; assay type: in vivo, Salsola kali; settings: Preemergence
Text: as §1, §2

[6] = test system: annual bluegrass; assay type: in vivo, Poa annua
Text: as §1, §2

[7] = test system: Canada horseweed; assay type: in vivo, Erigeron Canadensis
Text: as §1, §2

[8] = test system: Italian ryegrass; assay type: in vivo, Lolium multiflorum
Text: as §1, §2

[9] = Postemergence, 500 g ai/ha, scale 0 to 100
[10] = Postemergence, 250 g ai/ha, scale 0 to 100
[11] = Preemergence, 62 g ai/ha, scale 0 to 100
[12] = Preemergence, 125 g ai/ha, scale 0 to 100
[13] = Preemergence, 250 g ai/ha, scale 0 (no effect) to 100 (complete control)
[14] = Preemergence, 500 g ai/ha, scale 0 (no effect) to 100 (complete control)
[15] = postemergence, 125 g ai/ha, scale 0 to 100
[16] = postemergence, 62 g ai/ha, scale 0 to 100
[17] = 500 g ai/ha, scale 0 (no effect) to 100 (complete control)
[18] = Preemergence, 375 g ai/ha, scale 0 (no effect) to 100 (complete control)
[19] = Preemergence, 125 g ai/ha, scale 0 (no effect) to 100 (complete control)

CCn1nc(C(C)(C)C)cc1C(=O)Nc1cccc(C(N)=O)n1 [Compound 162, 6-[[[3-(1,1-dimethylethyl)-1-ethyl-1H-pyrazol-5-yl]carbonyl]amino]-2-pyridinecarboxamide]
Plant response rating, Crabgrass, Large [1, 9]: 95 | Plant response rating, Crabgrass, Large [1, 10]: 90 | Plant response rating, Crabgrass, Large [1, 11]: 50 | Plant response rating, Crabgrass, Large [1, 12]: 90 | Plant response rating, Crabgrass, Large [1, 13]: 95 | Plant response rating, Crabgrass, Large [1, 14]: 100 | Plant response rating, Crabgrass, Large [1, 15]: 50 | Plant response rating, Crabgrass, Large [1, 16]: 30 | Plant response rating, Johnsongrass [2, 9]: 100 | Plant response rating, Johnsongrass [2, 10]: 100 | Plant response rating, Johnsongrass [2, 11]: 60 | Plant response rating, Johnsongrass [2, 12]: 100 | Plant response rating, Johnsongrass [2, 13]: 100 | Plant response rating, Johnsongrass [2, 14]: 100 | Plant response rating, Johnsongrass [2, 15]: 80 | Plant response rating, Johnsongrass [2, 16]: 65 | Plant response rating, Barnyardgrass [3, 9]: 95 | Plant response rating, Barnyardgrass [3, 10]: 90 | Plant response rating, Barnyardgrass [3, 11]: 60 | Plant response rating, Barnyardgrass [3, 12]: 100 | Plant response rating, Barnyardgrass [3, 13]: 100 | Plant response rating, Barnyardgrass [3, 14]: 100 | Plant response rating, Barnyardgrass [3, 15]: 80 | Plant response rating, Barnyardgrass [3, 16]: 60 | Plant response rating, Quackgrass [4, 9]: 95 | Plant response rating, Quackgrass [4, 10]: 90 | Plant response rating, Quackgrass [4, 11]: 20 | Plant response rating, Quackgrass [4, 12]: 60 | Plant response rating, Quackgrass [4, 13]: 75 | Plant response rating, Quackgrass [4, 14]: 90 | Plant response rating, Quackgrass [4, 15]: 70 | Plant response rating, Quackgrass [4, 16]: 50 | Plant response rating, Thistle ([5]; 62 g ai/ha, scale 0 to 100): 50 | Plant response rating, Thistle ([5]; 125 g ai/ha, scale 0 to 100): 50 | Plant response rating, Thistle [5, 17]: 70 | Plant response rating, Bluegrass [6, 9]: 98 | Plant response rating, Bluegrass [6, 10]: 98 | Plant response rating, Bluegrass [6, 11]: 100 | Plant response rating, Bluegrass [6, 12]: 100 | Plant response rating, Bluegrass [6, 13]: 100 | Plant response rating, Bluegrass [6, 14]: 100 | Plant response rating, Bluegrass [6, 15]: 95 | Plant response rating, Bluegrass [6, 16]: 90 | Plant response rating, Horseweed [7, 9]: 100 | Plant response rating, Horseweed [7, 10]: 100 | Plant response rating, Horseweed [7, 11]: 100 | Plant response rating, Horseweed [7, 12]: 100 | Plant response rating, Horseweed [7, 13]: 100 | Plant response rating, Horseweed [7, 14]: 100 | Plant response rating, Horseweed [7, 15]: 70 | Plant response rating, Horseweed [7, 16]: 70 | Plant response rating, Ryegrass, Italian [8, 9]: 100 | Plant response rating, Ryegrass, Italian [8, 10]: 98 | Plant response rating, Ryegrass, Italian [8, 11]: 50 | Plant response rating, Ryegrass, Italian [8, 12]: 95 | Plant response rating, Ryegrass, Italian [8, 13]: 95 | Plant response rating, Ryegrass, Italian [8, 14]: 95 | Plant response rating, Ryegrass, Italian [8, 15]: 95 | Plant response rating, Ryegrass, Italian [8, 16]: 50

CCc1nn(C(C)(C)C)cc1C(=O)Nc1cc(C(=O)N(C)C)ccn1 [Compound 293]
Plant response rating, Crabgrass, Large [1, 12]: 95 | Plant response rating, Crabgrass, Large [1, 13]: 95 | Plant response rating, Crabgrass, Large [1, 18]: 100 | Plant response rating, Crabgrass, Large [1, 14]: 100 | Plant response rating, Johnsongrass [2, 12]: 10 | Plant response rating, Johnsongrass [2, 13]: 60 | Plant response rating, Johnsongrass [2, 18]: 70 | Plant response rating, Johnsongrass [2, 14]: 85 | Plant response rating, Barnyardgrass [3, 12]: 60 | Plant response rating, Barnyardgrass [3, 13]: 100 | Plant response rating, Barnyardgrass [3, 18]: 100 | Plant response rating, Barnyardgrass [3, 14]: 100 | Plant response rating, Quackgrass [4, 12]: 70 | Plant response rating, Quackgrass [4, 13]: 80 | Plant response rating, Quackgrass [4, 18]: 95 | Plant response rating, Quackgrass [4, 14]: 95 | Plant response rating, Thistle ([5]; 125 g ai/ha, scale 0 to 100): 60 | Plant response rating, Thistle ([5]; 375 g ai/ha, scale 0 (no effect) to 100 (complete control)): 95 | Plant response rating, Thistle [5, 17]: 100 | Plant response rating, Bluegrass [6, 12]: 95 | Plant response rating, Bluegrass [6, 13]: 95 | Plant response rating, Bluegrass [6, 18]: 95 | Plant response rating, Bluegrass [6, 14]: 100 | Plant response rating, Ryegrass, Italian [8, 12]: 60 | Plant response rating, Ryegrass, Italian [8, 13]: 95 | Plant response rating, Ryegrass, Italian [8, 18]: 95 | Plant response rating, Ryegrass, Italian [8, 14]: 100

CCNC(=O)c1ccc(F)c(NC(=O)c2cc(C(C)(C)C)nn2CC)c1 [Compound 2, 3-(1,1-dimethylethyl)-1-ethyl-N-[5-[(ethylamino)carbonyl]-2-fluorophenyl]-1H-pyrazole-5-carboxamide]
Plant response rating, Crabgrass, Large [1, 10]: 98 | Plant response rating, Crabgrass, Large [1, 11]: 70 | Plant response rating, Crabgrass, Large [1, 19]: 80 | Plant response rating, Crabgrass, Large [1, 13]: 100 | Plant response rating, Crabgrass, Large [1, 14]: 100 | Plant response rating, Crabgrass, Large [1, 15]: 95 | Plant response rating, Crabgrass, Large [1, 16]: 90 | Plant response rating, Johnsongrass [2, 10]: 100 | Plant response rating, Johnsongrass [2, 11]: 90 | Plant response rating, Johnsongrass [2, 19]: 90 | Plant response rating, Johnsongrass [2, 13]: 100 | Plant response rating, Johnsongrass [2, 14]: 100 | Plant response rating, Johnsongrass [2, 15]: 90 | Plant response rating, Johnsongrass [2, 16]: 80 | Plant response rating, Barnyardgrass [3, 10]: 95 | Plant response rating, Barnyardgrass [3, 11]: 60 | Plant response rating, Barnyardgrass [3, 19]: 80 | Plant response rating, Barnyardgrass [3, 13]: 100 | Plant response rating, Barnyardgrass [3, 14]: 100 | Plant response rating, Barnyardgrass [3, 15]: 90 | Plant response rating, Barnyardgrass [3, 16]: 80 | Plant response rating, Quackgrass [4, 10]: 95 | Plant response rating, Quackgrass [4, 11]: 30 | Plant response rating, Quackgrass [4, 19]: 60 | Plant response rating, Quackgrass [4, 13]: 70 | Plant response rating, Quackgrass [4, 14]: 80 | Plant response rating, Quackgrass [4, 15]: 90 | Plant response rating, Quackgrass [4, 16]: 70 | Plant response rating, Thistle ([5]; 62 g ai/ha, scale 0 to 100): 50 | Plant response rating, Thistle ([5]; 125 g ai/ha, scale 0 to 100): 60 | Plant response rating, Thistle ([5]; 250 g ai/ha, scale 0 (no effect) to 100 (complete control)): 60 | Plant response rating, Thistle [5, 17]: 80 | Plant response rating, Bluegrass [6, 10]: 100 | Plant response rating, Bluegrass [6, 11]: 95 | Plant response rating, Bluegrass [6, 19]: 100 | Plant response rating, Bluegrass [6, 13]: 100 | Plant response rating, Bluegrass [6, 14]: 100 | Plant response rating, Bluegrass [6, 15]: 98 | Plant response rating, Bluegrass [6, 16]: 90 | Plant response rating, Horseweed [7, 11]: 80 | Plant response rating, Horseweed [7, 19]: 100 | Plant response rating, Horseweed [7, 13]: 100 | Plant response rating, Horseweed [7, 14]: 100 | Plant response rating, Ryegrass, Italian [8, 10]: 98 | Plant response rating, Ryegrass, Italian [8, 11]: 60 | Plant response rating, Ryegrass, Italian [8, 19]: 80 | Plant response rating, Ryegrass, Italian [8, 13]: 95 | Plant response rating, Ryegrass, Italian [8, 14]: 95 | Plant response rating, Ryegrass, Italian [8, 15]: 90 | Plant response rating, Ryegrass, Italian [8, 16]: 80
